The target of assay [1] is T1, hSLC19A3-wt (Homo sapiens, UniProt Q9BZV2).
T1 construct: full-length, wildtype human SLC19A3; made in house; host or cells: Expi293F
The assay can be described thus: nanoDSF thermal shift assay / apparent binding affinity, wildtype transporter. Conditions: for thermal shift / interaction with hSLC19A3, in words: thermal shift screen at 20 μM and 200 μM compound. In general terms: In DSF a fluorescence change marks the thermal transition of the protein.
Procedure: The thermal stability of the hSLC19A3 constructs and their binding affinities for small molecules were determined by nanoDSF, using a Prometheus NT.48 (NanoTemper Technologies). For sample preparation, the protein was diluted to a final concentration of 4 μM in SEC buffer and supplied with the respective compounds in a concentration range from 2 μM to 2 mM. Before measurement, the samples were incubated for 30 min at room temperature. Melting scans were performed at a temperature range from 20 to 95 °C with a temperature increment of 1 °C per minute. Thermal unfolding curves were recorded by measuring the ratio of the tryptophan-fluorescence at 350 nm (F350) and 330 nm (F330). The protein melting temperature (Tm) of a given sample was determined as the inflection point of the thermal unfolding curves, or the local maximum of its first derivative. The measured curves were analysed using the manufacturer’s software (PR.ThermControl, v 2.1.2, NanoTemper Technologies). Based on the determined Tm values, ligand induced thermal shifts (ΔTm) were determined as the difference between the melting temperature of the ligand-bound state (Tm) and the apo state (Tm^apo).
As R, Tstd and L are known and the ΔTm and Tm^apo are experimentally determined, non-linear curve fitting can be used to estimate Ea1 and Kd,app.

The target in assay [2] is T2, hSLC19A3-wt overexpressed in Expi293F cells (Homo sapiens, UniProt Q9BZV2).
T2 construct: full-length, wildtype human SLC19A3; expressed in transfected cells; host or cells: Expi293F
Nature of the assay: Mass spectrometry-based cellular thiamine-d3 uptake assay. Type of assay: cell-based. Conditions: 200 μM compound, 2 μM thiamine-d3, 5 min, n = 3. The procedure:
The cells were then pelleted for 5 min at 250×g and resuspended in 1×PBS (pH 7.4) at a cell density of 2 million cells per mL. The cell suspension was subsequently transferred to a 96-deep well plate in three technical replicates per condition (n = 3, 1 mL per well, corresponding to 2 million cells per condition). 200 μM of the selected compounds were added to the respective wells and the cells were incubated for 1 min on a shaking platform. […] Afterwards, the cells were pelleted for 5 min at 500×g and washed 3× with 1 mL 1×PBS (pH7.4), before transferring them to a fresh 96-deep well plate. The cell pellets were stored at –70 °C. For the LC-MS/MS analysis, the samples were extracted by adding 500 µL of a mixture of H2O:MeOH:ACN (1:1:1, v/v), containing 5% (v/v) formic acid. After vortexing and ultrasonication in a water bath for 5 min at 4 °C, samples were incubated for 20 min at –20 °C. […] The supernatants were then transferred for LC-MS analysis, which was initiated within one hour after sample preparation. LC-MS/MS analysis was performed on a Vanquish UHPLC system coupled to an Orbitrap Exploris 240 high-resolution mass spectrometer (Thermo Fisher Scientific, MA, USA) in positive ESI (electrospray ionization) mode. Chromatographic separation was carried out on an Atlantis Premier BEH Z-HILIC column (Waters, MA, USA; 2.1 mm × 100 mm, 1.7 µm) at a flow rate of 0.25 mL/min. The mobile phase consisted of water:acetonitrile (9:1, v/v; mobile phase phase A) and acetonitrile:water (9:1, v/v; mobile phase B), which were modified with a total buffer concentration of 10 mM ammonium formate. The aqueous portion of each mobile phase was adjusted to pH 3.0 via addition of formic acid. The following gradient (8 min total run time including re-equilibration) was applied (time [min]/%B): 0/90, 3/85, 3.5/60, 4/60, 5/90, 8/90. Column temperature was maintained at 40 °C, the autosampler was set to 4 °C and sample injection volume was set to 3 µL. Analytes were recorded via a full scan with a mass resolving power of 120,000 over a mass range from 60 to 900 m/z (scan time: 100 ms, RF lens: 70%).
All experimental samples were measured in a randomized manner. Pooled quality control (QC) samples were prepared by mixing equal aliquots from each processed sample. Multiple QCs were injected at the beginning of the analysis in order to equilibrate the analytical system. A QC sample was analyzed after every 6th experimental sample to monitor instrument performance throughout the sequence. For determination of background signals and subsequent background subtraction, an additional processed blank sample was recorded. Data was processed using TraceFinder 5.1 and raw peak area data was exported for relative metabolite quantification.

The subject of assay [3] is SLC19A3. Conditions: cited from earlier work.
The target in assay [4] is glycosylation-free mutant of hSLC19A3 (hSLC19A3-gf) (human, UniProt Q9BZV2 1-496, Asn45 mutated to glutamine | Asn166 mutated to glutamine). Nature of the assay: BLI. For orientation: BLI is a label-free optical method that tracks binding on a fibre tip over time.

Entries after “also recorded” stand apart in the source; their conditions may differ.

We go through 22 molecules from paper PMC11447181 (Nature Communications, 2024).

As usually defined, the ΔTm is the shift of the melting midpoint relative to a reference.

T1 sequence (Q9BZV2 with tags, fused parts or gaps): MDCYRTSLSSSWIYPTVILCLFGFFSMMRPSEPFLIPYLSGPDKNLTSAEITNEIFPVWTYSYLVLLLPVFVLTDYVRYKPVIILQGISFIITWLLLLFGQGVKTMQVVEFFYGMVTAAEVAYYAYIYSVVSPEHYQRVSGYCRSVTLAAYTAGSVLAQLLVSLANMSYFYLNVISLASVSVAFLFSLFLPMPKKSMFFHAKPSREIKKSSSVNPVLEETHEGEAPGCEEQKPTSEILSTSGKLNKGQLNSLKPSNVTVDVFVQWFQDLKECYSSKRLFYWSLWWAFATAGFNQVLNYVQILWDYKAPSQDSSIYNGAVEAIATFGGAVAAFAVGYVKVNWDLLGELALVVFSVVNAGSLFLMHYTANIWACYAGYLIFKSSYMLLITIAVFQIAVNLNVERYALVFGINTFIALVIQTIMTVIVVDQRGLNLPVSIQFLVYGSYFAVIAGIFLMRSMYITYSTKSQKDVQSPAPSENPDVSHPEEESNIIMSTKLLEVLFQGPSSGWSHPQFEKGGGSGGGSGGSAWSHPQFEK
T2 sequence (Q9BZV2 with tags, fused parts or gaps): as above
Sequence of glycosylation-free mutant of hSLC19A3 (hSLC19A3-gf) (Q9BZV2 other isoform, or with tags, fused parts or gaps with the stated changes): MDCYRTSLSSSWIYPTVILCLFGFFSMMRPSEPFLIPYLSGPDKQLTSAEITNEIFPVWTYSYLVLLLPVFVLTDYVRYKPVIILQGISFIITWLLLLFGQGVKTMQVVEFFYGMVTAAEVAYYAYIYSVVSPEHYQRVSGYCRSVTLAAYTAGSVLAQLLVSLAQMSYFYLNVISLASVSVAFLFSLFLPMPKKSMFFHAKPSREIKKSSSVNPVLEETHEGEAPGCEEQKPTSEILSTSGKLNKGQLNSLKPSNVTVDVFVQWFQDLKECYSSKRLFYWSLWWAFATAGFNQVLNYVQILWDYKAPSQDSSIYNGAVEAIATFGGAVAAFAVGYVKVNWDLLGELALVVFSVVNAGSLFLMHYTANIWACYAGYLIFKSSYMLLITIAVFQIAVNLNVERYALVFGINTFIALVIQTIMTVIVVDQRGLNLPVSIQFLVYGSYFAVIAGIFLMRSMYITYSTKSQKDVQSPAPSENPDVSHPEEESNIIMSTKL

Consider `CN(C)CCC=C1c2ccccc2CCc2ccccc21` [amitriptyline], for which the “thermal shift / interaction with hSLC19A3, in words” value (shortened to “thermal shift / interaction”) in assay [1] is listed as “destabilize the transporter in a concentration-dependent manner”. In assay [2], the “inhibition of thiamine uptake through hSLC19A3, in words” value (shortened to “inhibition”) is “inhibit its thiamine transport activity”.
For the molecule `CCCc1ncc(C[n+]2ccccc2C)c(N)n1` [amprolium], the “thermal shift / interaction” value in assay [1] is “strongly stabilised the transporter against heat unfolding in a concentration-dependent manner”.
Turning to `CCS(=O)(=O)N1CC(CC#N)(n2cc(-c3ncnc4[nH]ccc34)cn2)C1` [baricitinib], in assay [1], the “thermal shift / interaction” value was “did not stabilise hSLC19A3”.
Still for that read-out and setting: for `O=C(O)CCCC[C@@H]1SC[C@@H]2NC(=O)N[C@@H]21` [biotin] the value was “does not interact with the transporter”.
For the molecule `CN(C)CCCC1(c2ccc(F)cc2)OCc2cc(C#N)ccc21` (stereo not drawn) [citalopram], in assay [1], the “thermal shift / interaction” value is listed as “also interact with hSLC19A3”. Further, the “inhibition” value in assay [2] was “interferes with thiamine uptake”.
For the molecule `Cc1nc(Nc2ncc(C(=O)Nc3c(C)cccc3Cl)s2)cc(N2CCN(CCO)CC2)n1` [dasatinib], the “inhibition” value in assay [2] is on record as “interfered with thiamine-uptake through hSLC19A3”.
As to `CN(C)CCC=C1c2ccccc2COc2ccccc21` [doxepin], the “thermal shift / interaction” value in assay [1] is “destabilize the transporter in a concentration-dependent manner”. For the same molecule, the “inhibition” value in assay [2] was “inhibit its thiamine transport activity”.
Regarding `COc1cc2ncnc(Nc3ccc(F)c(Cl)c3)c2cc1OCCCN1CCOCC1` [gefitinib], in assay [2], the “inhibition” value is “interfered with thiamine-uptake through hSLC19A3”.
On to `CCN(CCO)CCCC(C)Nc1ccnc2cc(Cl)ccc12` (stereo not drawn) [hydroxychloroquine], for which, in assay [1], the Kd amounted to 170 ± 55 nM and the “thermal shift / interaction” value is recorded as “strongly stabilises hSLC19A3”.
Take `Cc1ccc(NC(=O)c2ccc(CN3CCN(C)CC3)cc2)cc1Nc1nccc(-c2cccnc2)n1` [imatinib]: in assay [1], the Kd amounted to 4400 ± 500 nM and the “thermal shift / interaction” value is reported as “strongly stabilized hSLC19A3”. In assay [2], the “inhibition” value is “interfered with thiamine-uptake through hSLC19A3; also recorded: inhibitory effect comparable to the one of fedratinib”.
In the case of `CN(C)CCCN1c2ccccc2CCc2ccccc21` [imipramine], in assay [1], the “thermal shift / interaction” value is recorded as “destabilize the transporter in a concentration-dependent manner”. For the same molecule, the “inhibition” value in assay [2] is on record as “inhibit its thiamine transport activity”.
For the molecule `N#CCNC(=O)c1ccc(-c2ccnc(Nc3ccc(N4CCOCC4)cc3)n2)cc1` [momelotinib], the “thermal shift / interaction” value in assay [1] is recorded as “did not stabilise hSLC19A3”.
In the case of `Cc1ncc(C[n+]2csc(CCO)c2C)c(=O)[nH]1` [oxythiamine], the “thermal shift / interaction” value in assay [1] was “strongly decreased affinity and a lower thermostabilisation of the transporter; also recorded: stabilises the transporter only weakly”.
For `CCc1nc(N)nc(N)c1-c1ccc(Cl)cc1` [pyrimethamine], in assay [1] (read-out: ΔTm (thermostabilisation)), the ΔTm at 20 µM is 9.3 ± 0.5 °C.
For the molecule `CN[C@H]1CC[C@@H](c2ccc(Cl)c(Cl)c2)c2ccccc21` [sertraline], the shift in melting temperature (ΔTm) in assay [1] (at low micromolar concentrations, nanoDSF) amounted to 2.5 ± 0.4 °C.
For `Cc1ncc(C[n+]2csc(CCOP(=O)(O)O)c2C)c(N)n1` [thiamine-p, thiamine monophosphate], the “thermal shift / interaction” value in assay [1] is given as “strongly reduced affinity”.
Turning to `Cc1ncc(C[n+]2csc(CCO[P@](=O)(O)OP(=O)(O)O)c2C)c(N)n1` [thiamine-pp, thiamine pyrophosphate], the “thermal shift / interaction” value in assay [1] is given as “does not stabilise the transporter at all”.
As for `C[C@@H]1CCN(C(=O)CC#N)C[C@@H]1N(C)c1ncnc2[nH]ccc12` [tofacitinib], the “thermal shift / interaction” value in assay [1] is “stabilising hSLC19A3”. In addition, in assay [2], the “inhibition” value is given as “shows no inhibitory effect on thiamine transport”.
In the case of `COc1cc(Cc2cnc(N)nc2N)cc(OC)c1OC` [trimethoprim], in assay [3], the “substrate status at the transporter” value is reported as “xenobiotic substrates of the transporter”.

B1: nanobody Nb3.7 (VHH)
VHH: QVQLVESGGGLVQPGDSLRLSCAASGRTFSINAMAWFRQAPGKEREYVAQISWTGGNTYYAESVKGRFTISRDNAKNTVYLQMISLKPEDTAVYYCAADSGGIRLGASRWNYWGQGTQVTVSS
Turning to B1, the Kd in assay [4] came to 110 nM.

B2: nanobody Nb3.3 (VHH)
VHH: QVQLVESGGGLVQAGDSLRLSCAASGRTFSNYYMAWFRQAPGKEREFVAAIRLSYGSTYYADSVRGRFTISKDNAKNTVNLRMNSLKSEDTAIYYCAAAEDRWALAVRTATTYNYWGQGTQVTVSS
In turn, B2 gave a Kd in assay [4] of 200 nM.

B3: nanobody Nb3.4 (VHH)
VHH: QVQLVESGGGLVQAGDSLRLSCAASGLTFSRYDMAWFRQAPGKEREFVAAITWTGSITDYADSVKGRFTISRDNAKNTIYLQMNSLKPEDTAVYYCAAAQVPYGSTLKFNLRTLFGSWGQGTQVTVSS
As to B3, in assay [4], the Kd turned out to be 280 nM.
